According to patent US20090176950A1, “METAL HYDRIDE COMPLEX, METHOD OF HYD[…]-OPENING POLY[…] OF CYCLOOLEFIN, AND PROCESS FOR PRODUCING PRODUCT OF HYD[…] RING-OPENING POLY[…] OF CYCLOOLEFIN” (JSR CORPORATION, priority 2005, published 2009):

Experiments:
[1] = solubility of the metal hydride complex to toluene; assay type: physicochemical
[2] = hydrogenation of ring-opening polymer with the complex as hydrogenation catalyst (Example 4 procedure); settings: 0.06 parts complex per 1000 parts polymer solution, hydrogen 100 kg/cm^2, 165° C., 3 hours, 1H-NMR
Experimental: Into a reaction vessel substituted with nitrogen were charged 250 parts of 8-methyl-8-methoxycarbonyltetracyclo[4.4.0.1^2,5.1^7,10]-3-dodecene, 18 parts of 1-hexene (molecular weight adjusting agent) and 750 parts of toluene and the resulting solution was heated to 80° C. Thereafter, to the solution in the reaction vessel were added 0.62 parts of a toluene solution of triethylaluminum (1.5 mol/L) as a polymerization catalyst and 3.7 parts of a toluene solution (concentration: 0.05 mol/L) of tungsten hexachloride modified with t-butanol and methanol (t-butanol:methanol:tungsten=0.35 mol:0.3 mol:1 mol). The ring-opening copolymerization reaction was carried out by heating and stirring this system at 80° C. for 3 hours to obtain a ring-opening metathesis polymer solution of 8-methyl-8-methoxycarbonyltetracyclo[4.4.0.1^2,5.1^7,10]-3-dodecene. The polymerization conversion rate in this polymerization reaction was 97%.
Into an autoclave was charged 1000 parts of the ring-opening polymer solution obtained above and to this solution was added as a hydrogenation catalyst a toluene solution of 0.5% by weight of the ruthenium hydride complex obtained in Example 1 in an amount (12 parts) so that the amount of added complex was 0.06 parts. The hydrogenation reaction was carried out by heating and stirring for 3 hours under the conditions of a hydrogen gas pressure of 100 kg/cm^2 and a reaction temperature of 165° C. The resulting reaction solution (hydrogenated polymer solution) was cooled and then the hydrogen gas was released. This reaction solution was poured into a large amount of methanol to separate and collect a coagulated substances which was dried to obtain a hydrogenated polymer.

[3] = autoclave hydrogenation of DNM/DCP polymer (Example 9 procedure)
Experimental: (§1) ^1H-NMR was measured by using AVANCE500 manufactured by BRUKER as a nuclear magnetic resonance spectrometer (NMR) with chloroform-d as a measuring solvent. The composition of a monomer was calculated from the integral value of the vinylene group at 5.1 to 5.8 ppm, the methoxy group at 3.7 ppm and the aliphatic proton at 0.6 to 2.8 ppm, and then the hydrogenation rate was calculated.
Into a reaction vessel substituted with nitrogen were charged 75 parts by weight of 8-methoxycarbonyl-8-methyltetracyclo[4.4.0.1^2,5.1^7,10]-3-dodecene (DNM) and 25 parts by weight of dicyclopentadiene (DCP) as monomers, 6 parts by weight of 1-butene as a molecular weight adjusting agent and 170 parts by weight of toluene, and the resultant mixture was heated to 100° C. To this mixture were added 0.005 parts by weight of triethylaluminum, 0.005 parts by weight of methanol-modified WCl6 (anhydrous methanol:PhPOCl2:WCl6=103:630:427 (weight ratio)), and the reaction was carried out at 100° C. for one hour to obtain a polymer. The conversion was 100%.
Next, into a pressure-proof autoclave with a design temperature of 185° C. and a capacity of 1.25 m^3 were charged a solution of the polymer obtained above equivalent to 350 kg of the solid component and as a hydrogenation catalyst 0.0335 parts by weight of RuH(CO)[P(C6H5)]2(OCO-p-Ph-n-C5H13) of which saturation solubility to toluene at 25° C. is 5% by weight based on 100 parts by weight equivalent to the polymer solid component conversion, and the autoclave was heated to 100° C. Then, hydrogen gas was introduced to the autoclave to increase the pressure to 10 MPa. The maximum attained temperature during the hydrogenation reaction was 179° C. The theoretical value of generated heat was calculated from DNM=129.3 kcal/kg and DCP=452.3 kcal/kg. Thereafter, the reaction was carried out at 165° C. for 3 hours while maintaining the pressure at 10 MPa to obtain a hydrogenated product. […]

[4] = autoclave hydrogenation of DNM/DCP/NB polymer (Example 10 procedure); settings: gelation inhibitor
Experimental: as §1
A hydrogenated product was obtained in the same way as Example 1 except that in Example 9, there were charged 65 parts by weight of 8-methoxycarbonyl-8-methyltetracyclo[4.4.0.1^2,5.1^7,10]-3-dodecene (DNM), 25 parts by weight of dicyclopentadiene (DCP) and 10 parts by weight of norbornene (NB) as monomers and 190 parts by weight of toluene to synthesize a polymer, and the charged amount equivalent to the solid component of the polymer was changed to 330 kg in the hydrogenation reaction. […] The maximum attained temperature during the hydrogenation reaction was 179° C. The theoretical value of generated heat was calculated from DNM=129.3 kcal/kg, DCP=452.3 kcal/kg and NB=319.3 kcal/kg.

[5] = hydrogenation of ring-opening copolymer with the complex as catalyst (Example 8); settings: 0.06 parts complex, hydrogen 100 kg/cm^2, 165° C., 3 hours
Source text: A ring-opening copolymer solution was obtained by carrying out the same polymerization operations as those in Example 4 except that 190 parts of 8-methyl-8-methoxycarbonyltetracyclo[4.4.0.1^2,5.1^7,10]-3-dodecene and 60 parts of spiro[fluorene-9,8′-tricyclo[4.3.0.1^2,5]dec-3-ene were used in place of 250 parts of 8-methyl-8-methoxycarbonyltetracyclo[4.4.0.1^2,5.1^7,10]-3-dodecene. The polymerization conversion rate in this polymerization reaction was 96%.
(§2) Into an autoclave was charged 1000 parts of the ring-opening copolymer solution thus obtained and to the ring-opening polymer solution was added a toluene solution of 1.0% by weight of the ruthenium hydride complex obtained in Example 2 in an amount (6 parts) so that the amount of added complex was 0.06 parts. The hydrogenation reaction was carried out by heating and stirring for 3 hours under the conditions of a hydrogen gas pressure of 100 kg/cm^2 and a reaction temperature of 165° C. The resulting reaction solution (hydrogenated polymer solution) was cooled and then the hydrogen gas was released. […] This polymer was analyzed by ^1H-NMR and the hydrogenation rate was determined by the ratio of the integral value of the saturated hydrocarbons at 0.6 to 2.5 ppm to the integral value of the unsaturated hydrocarbons at 5.0 to 5.6 ppm.

[6] = hydrogenation of ring-opening copolymer with the complex as catalyst (Example 7); settings: 0.06 parts complex, hydrogen 100 kg/cm^2, 165° C., 3 hours
Source text: A ring-opening polymer solution was obtained by carrying out the same polymerization operations as those in Example 4 except that 187.5 parts of 8-methyl-8-methoxycarbonyltetracyclo[4.4.0.1^2,5.1^7,10]-3-dodecene and 62.5 parts of tricyclo[4.3.0.1^2,5]deca-3,8-diene were used in place of 250 parts of 8-methyl-8-methoxycarbonyltetracyclo[4.4.0.1^2,5.1^7,10]-3-dodecene. The polymerization conversion rate of this polymerization reaction was 98%.
as §2, with “ring-opening copolymer” for “ring-opening polymer”, “conditions including” for “conditions of”

[7] = hydrogen introduced at 100° C., 10 MPa, 165° C. for 3 hours

Compound	solubility to toluene at 20° C. [1]	saturation solubility to toluene at 25° C. [1]	saturation solubility to toluene ([1]; temperature not given)	hydrogenation rate of the hydrogenated polymer [2]	olefinic unsaturated bonds in the main chain hydrogenated (hydrogenation rate) [3, 7]	olefinic unsaturated bonds in the main chain hydrogenated (hydrogenation rate) ([3]; hydrogen introduction temperature 150° C., 600 parts toluene, gelation inhibitor)	olefinic unsaturated bonds in the main chain hydrogenated (hydrogenation rate) ([4]; hydrogen introduction temperature 100° C.)	olefinic unsaturated bonds in the main chain hydrogenated (hydrogenation rate) ([4]; hydrogen introduction temperature 150° C., 700 parts toluene)	hydrogenation rate of the main chain of the copolymer [5]	hydrogenation rate of the main chain of the copolymer [6]	hydrogenation rate of the unsaturated double bonds derived from the side chain of tricyclo[4.3.0.1^2,5]deca-3,8-diene [6]
[C-]#[O+].[Cl][RuH].c1ccc(P(c2ccccc2)c2ccccc2)cc1.c1ccc(P(c2ccccc2)c2ccccc2)cc1.c1ccc(P(c2ccccc2)c2ccccc2)cc1 [RuHCl(CO)(PPh3)3, reference compound]	0.03 % by weight	0.05 % by weight	0.05 % by weight	99.75%	≥ 99.9%	≥ 99.9%	≥ 99.9%	≥ 99.9%	99.30%	–	–
RuH(CO)[P(C6H5)]2(OCO-p-Ph-n-C5H13)	–	5 % by weight	–	–	≥ 99.9%	–	–	–	–	–	–
RuH(OCOPh)(CO)(PPh3)2 [Example 1]	0.5 % by weight	–	–	99.99%	–	–	–	–	–	–	–
RuH(OCOPh-C5H11)(CO)(PPh3)2 [Example 2]	1.0 % by weight	–	–	99.95%	–	–	–	–	99.93%	99.97%	≥ 99.99%
RuH(OCOPh-C8H17)(CO)(PPh3)2 [Example 3]	5.0 % by weight	–	–	99.90%	–	–	–	–	–	–	–
